# From publication PMC12655527, “An Investigational Study on the Role of ADME Agents’ Genetic Variation on DD217 Pharmacokinetics and Safety Profile” (Pharmaceuticals, 2025)
# Several values for one entry are separate records, joined by “and”; a condition that tells them apart may be missing. Identical values can stand only once. Like-named read-outs stand apart in the source and are kept apart here.
# How the values were obtained:
# [1] = Pharmacokinetic parameters (Tmax, AUClast, Cmax) of DD217 in phase II trial patients; assay type: in vivo, human (patients undergoing knee replacement surgery); set-up: AUClast (area under the concentration-time curve up to the last measurable point) / Cmax (maximum plasma concentration): unit not given here; settings: for AUC(0-t) / Cmax / Tmax: human, plasma, oral; for AUClast (area under the concentration-time curve up to the last measurable point) / Cmax (maximum plasma concentration) / Tmax (time to maximum plasma concentration): individual patients
# From the text: The design, eligibility criteria, and outcomes of the phase II clinical trial evaluating the safety and tolerability of DD217 (NCT05189002, ClinicalTrials.gov) have been described previously. Briefly, this was a multicenter, double-blind, randomized, prospective phase II study designed to determine the optimal dosing regimen and to assess the safety and efficacy of DD217 for the prevention of venous thromboembolism (VTE) in patients undergoing knee replacement surgery. Patients were randomized into one of three groups: two groups received oral DD217 at doses of 40 mg or 60 mg once daily, starting on the morning of the first postoperative day, and one group received the active comparator, dalteparin sodium. The treatment duration was 14 days.
# In total, data from 52 patients who underwent knee replacement surgery were included in the analysis. Of these, 34 patients received DD217 at daily doses of 40 mg (n = 16) or 60 mg (n = 18), and 18 patients received dalteparin sodium.
# To characterize the pharmacokinetic profile of DD217 in our study, three parameters were assessed: Cmax, Tmax, and AUClast.
# Factor Xa = system: Factor Xa; set-up: method as in PMID 29468977; settings: preclinical studies; cited from earlier work
smiles,measurement,setting,value
"CC(=N)N(C)c1ccc(C(=O)Nc2ccc(C)cc2C(=O)Nc2ccc(Cl)cn2)cc1.Cl [DD217, N-(5-chloropyridin-2-yl)-5-methyl-2-[4-(N-methylacetimidamido)benzamido]benzamide hydrochloride]",AUC(0-t),"[1]; 40 mg, CYP2C19 *1/*17, *17/*17, RM + UM (n = 9), mean ± SD, read-out: AUClast",47.7 ± 42.6 ng·h/mL
same,Cmax,"[1]; 40 mg, CYP2C19 *1/*17, *17/*17, RM + UM (n = 9), mean ± SD, read-out: Cmax",5.8 ± 6.73 ng/mL
same,Tmax,"[1]; 40 mg, CYP2C19 *1/*17, *17/*17, RM + UM (n = 9), mean ± SD, read-out: Tmax",7.67 ± 6.71 h
same,AUC(0-t),"[1]; 40 mg, CYP3A *1/*1, EM (n = 12), mean ± SD, read-out: AUClast",40 ± 42.1 ng·h/mL
same,Cmax,"[1]; 40 mg, CYP3A *1/*1, EM (n = 12), mean ± SD, read-out: Cmax",5.02 ± 6.92 ng/mL
same,Tmax,"[1]; 40 mg, CYP3A *1/*1, EM (n = 12), mean ± SD, read-out: Tmax",11.8 ± 9.5 h
same,AUC(0-t),"[1]; 60 mg/day, ABCB1 rs1045642 C/C (n 3), read-out: AUClast (SD)",197 ng·h/mL
same,Cmax,"[1]; 60 mg/day, ABCB1 rs1045642 C/C (n 3), read-out: Cmax (SD)",15.9 ng/mL
same,Tmax,"[1]; 60 mg/day, ABCB1 rs1045642 C/C (n 3), read-out: Tmax (SD)",2 h
same,AUC(0-t),"[1]; 60 mg/day, ABCB1 rs1045642 T/C (n 8), read-out: AUClast (SD)",53.9 ng·h/mL
same,Cmax,"[1]; 60 mg/day, ABCB1 rs1045642 T/C (n 8), read-out: Cmax (SD)",5.54 ng/mL
same,Tmax,"[1]; 60 mg/day, ABCB1 rs1045642 T/C (n 8), read-out: Tmax (SD)",7.75 h
same,AUC(0-t),"[1]; 60 mg/day, ABCB1 rs1045642 T/T (n 7), read-out: AUClast (SD)",27.6 ng·h/mL
same,Cmax,"[1]; 60 mg/day, ABCB1 rs1045642 T/T (n 7), read-out: Cmax (SD)",2.42 ng/mL
same,Tmax,"[1]; 60 mg/day, ABCB1 rs1045642 T/T (n 7), read-out: Tmax (SD)",13.6 h
same,AUC(0-t),"[1]; 60 mg/day, ABCB1 rs1128503 C/C (n 4), read-out: AUClast (SD)",164 ng·h/mL
same,Cmax,"[1]; 60 mg/day, ABCB1 rs1128503 C/C (n 4), read-out: Cmax (SD)",14.1 ng/mL
same,Tmax,"[1]; 60 mg/day, ABCB1 rs1128503 C/C (n 4), read-out: Tmax (SD)",2 h
same,AUC(0-t),"[1]; 60 mg/day, ABCB1 rs1128503 T/C (n 10), read-out: AUClast (SD)",50.5 ng·h/mL
same,Cmax,"[1]; 60 mg/day, ABCB1 rs1128503 T/C (n 10), read-out: Cmax (SD)",4.66 ng/mL
same,Tmax,"[1]; 60 mg/day, ABCB1 rs1128503 T/C (n 10), read-out: Tmax (SD)",9 h
same,AUC(0-t),"[1]; 60 mg/day, ABCB1 rs1128503 T/T (n 4), read-out: AUClast (SD)",14 ng·h/mL
same,Cmax,"[1]; 60 mg/day, ABCB1 rs1128503 T/T (n 4), read-out: Cmax (SD)",1.49 ng/mL
same,Tmax,"[1]; 60 mg/day, ABCB1 rs1128503 T/T (n 4), read-out: Tmax (SD)",16.2 h
same,AUC(0-t),"[1]; 60 mg/day, ABCB1 rs2032582 G/G (n 4), read-out: AUClast (SD)",164 ng·h/mL
same,Cmax,"[1]; 60 mg/day, ABCB1 rs2032582 G/G (n 4), read-out: Cmax (SD)",14.1 ng/mL
same,Tmax,"[1]; 60 mg/day, ABCB1 rs2032582 G/G (n 4), read-out: Tmax (SD)",2 h
same,AUC(0-t),"[1]; 60 mg/day, ABCB1 rs2032582 T/G (n 9), read-out: AUClast (SD)",51.6 ng·h/mL
same,Cmax,"[1]; 60 mg/day, ABCB1 rs2032582 T/G (n 9), read-out: Cmax (SD)",4.87 ng/mL
same,Tmax,"[1]; 60 mg/day, ABCB1 rs2032582 T/G (n 9), read-out: Tmax (SD)",9.56 h
same,AUC(0-t),"[1]; 60 mg/day, ABCB1 rs2032582 T/T (n 5), read-out: AUClast (SD)",19.4 ng·h/mL
same,Cmax,"[1]; 60 mg/day, ABCB1 rs2032582 T/T (n 5), read-out: Cmax (SD)",1.74 ng/mL
same,Tmax,"[1]; 60 mg/day, ABCB1 rs2032582 T/T (n 5), read-out: Tmax (SD)",13.8 h
same,AUC(0-t),"[1]; 60 mg/day, ABCB1 rs4148738 C/C (n 5), read-out: AUClast (SD)",18.9 ng·h/mL
same,Cmax,"[1]; 60 mg/day, ABCB1 rs4148738 C/C (n 5), read-out: Cmax (SD)",1.78 ng/mL
same,Tmax,"[1]; 60 mg/day, ABCB1 rs4148738 C/C (n 5), read-out: Tmax (SD)",10.6 h
same,AUC(0-t),"[1]; 60 mg/day, ABCB1 rs4148738 C/T (n 9), read-out: AUClast (SD)",51.9 ng·h/mL
same,Cmax,"[1]; 60 mg/day, ABCB1 rs4148738 C/T (n 9), read-out: Cmax (SD)",4.85 ng/mL
same,Tmax,"[1]; 60 mg/day, ABCB1 rs4148738 C/T (n 9), read-out: Tmax (SD)",11.3 h
same,AUC(0-t),"[1]; 60 mg/day, ABCB1 rs4148738 T/T (n 4), read-out: AUClast (SD)",164 ng·h/mL
same,Cmax,"[1]; 60 mg/day, ABCB1 rs4148738 T/T (n 4), read-out: Cmax (SD)",14.1 ng/mL
same,Tmax,"[1]; 60 mg/day, ABCB1 rs4148738 T/T (n 4), read-out: Tmax (SD)",2 h
same,AUC(0-t),"[1]; 60 mg, CYP2C8 rs10509681 T/C (n 2), read-out: AUClast (SD)",62.5 ng·h/mL
same,Cmax,"[1]; 60 mg, CYP2C8 rs10509681 T/C (n 2), read-out: Cmax (SD)",5.69 ng/mL
same,Tmax,"[1]; 60 mg, CYP2C8 rs10509681 T/C (n 2), read-out: Tmax (h, SD)",3 h
same,AUC(0-t),"[1]; 60 mg, CYP2C8 rs10509681 T/T (n 16), read-out: AUClast (SD)",68.2 ng·h/mL
same,Cmax,"[1]; 60 mg, CYP2C8 rs10509681 T/T (n 16), read-out: Cmax (SD)",6.11 ng/mL
same,Tmax,"[1]; 60 mg, CYP2C8 rs10509681 T/T (n 16), read-out: Tmax (h, SD)",9.81 h
same,AUC(0-t),"[1]; 60 mg, CYP2C8 rs11572080 C/C (n 16), read-out: AUClast (SD)",68.2 ng·h/mL
same,Cmax,"[1]; 60 mg, CYP2C8 rs11572080 C/C (n 16), read-out: Cmax (SD)",6.11 ng/mL
same,Tmax,"[1]; 60 mg, CYP2C8 rs11572080 C/C (n 16), read-out: Tmax (h, SD)",9.81 h
same,AUC(0-t),"[1]; 60 mg, CYP2C8 rs11572080 C/T (n 2), read-out: AUClast (SD)",62.5 ng·h/mL
same,Cmax,"[1]; 60 mg, CYP2C8 rs11572080 C/T (n 2), read-out: Cmax (SD)",5.69 ng/mL
same,Tmax,"[1]; 60 mg, CYP2C8 rs11572080 C/T (n 2), read-out: Tmax (h, SD)",3 h
same,AUC(0-t),"[1]; 60 mg, CYP2C9 *1/*1, NM (n = 11), mean ± SD, read-out: AUClast",37.5 ± 42.4 ng·h/mL
same,Cmax,"[1]; 60 mg, CYP2C9 *1/*1, NM (n = 11), mean ± SD, read-out: Cmax",3.66 ± 4.07 ng/mL
same,Tmax,"[1]; 60 mg, CYP2C9 *1/*1, NM (n = 11), mean ± SD, read-out: Tmax",12.9 ± 9.14 h
same,AUC(0-t),"[1]; 60 mg, CYP2C9 *2/*3, PM (n = 2), mean ± SD, read-out: AUClast",177 ± 224 ng·h/mL
same,Cmax,"[1]; 60 mg, CYP2C9 *2/*3, PM (n = 2), mean ± SD, read-out: Cmax",11.3 ± 13.6 ng/mL
same,Tmax,"[1]; 60 mg, CYP2C9 *2/*3, PM (n = 2), mean ± SD, read-out: Tmax",2.5 ± 2.12 h
same,AUC(0-t),"[1]; 60 mg, CYP2C19 *1/*1, NM (n = 8), mean ± SD, read-out: AUClast",98 ± 124 ng·h/mL
same,Cmax,"[1]; 60 mg, CYP2C19 *1/*1, NM (n = 8), mean ± SD, read-out: Cmax",8.44 ± 9.71 ng/mL
same,Tmax,"[1]; 60 mg, CYP2C19 *1/*1, NM (n = 8), mean ± SD, read-out: Tmax",8.75 ± 10.1 h
same,AUC(0-t),"[1]; 60 mg, CYP2C19 *1/*17, RM (n = 6), mean ± SD, read-out: AUClast",50.5 ± 51.6 ng·h/mL
same,Cmax,"[1]; 60 mg, CYP2C19 *1/*17, RM (n = 6), mean ± SD, read-out: Cmax",4.5 ± 4.61 ng/mL
same,Tmax,"[1]; 60 mg, CYP2C19 *1/*17, RM (n = 6), mean ± SD, read-out: Tmax",9.17 ± 7.33 h
same,AUC(0-t),"[1]; 60 mg, CYP3A *1/*1, EM (n = 16), mean ± SD, read-out: AUClast",52.7 ± 63.3 ng·h/mL
same,Cmax,"[1]; 60 mg, CYP3A *1/*1, EM (n = 16), mean ± SD, read-out: Cmax",5.32 ± 6.58 ng/mL
same,Tmax,"[1]; 60 mg, CYP3A *1/*1, EM (n = 16), mean ± SD, read-out: Tmax",9.75 ± 8.93 h
same,AUClast (area under the concentration-time curve up to the last measurable point),[1]; 40 mg/day oral,39.7 and 128.526 and 20.601 and 13.049 and 18.213 and 10.234 and 34.56 and 101.166 and 120.462 and 21.211 and 2.735 and 84.631 and 10.412 and 4.928 and 48.451 and 17.602
same,Cmax (maximum plasma concentration),[1]; 40 mg/day oral,3.95 and 22.764 and 1.686 and 1.136 and 1.739 and 0.656 and 5.76 and 15.011 and 19.462 and 3.535 and 0.456 and 5.034 and 0.72 and 0.405 and 3.119 and 1.379
same,Tmax (time to maximum plasma concentration),[1]; 40 mg/day oral,1 h and 12 h
same,AUClast (area under the concentration-time curve up to the last measurable point),[1]; 60 mg/day oral,19.08 and 237.522 and 35.852 and 16.597 and 21.462 and 105.854 and 58.513 and 4.589 and 25.375 and 51.929 and 37.407 and 14.483 and 13.976 and 62.698 and 11.57 and 152.359 and 11.552 and 335.306
same,Cmax (maximum plasma concentration),[1]; 60 mg/day oral,1.663 and 25.28 and 3.324 and 1.155 and 1.59 and 9.707 and 7.329 and 0.325 and 2.291 and 4.963 and 2.974 and 1.614 and 1.37 and 8.694 and 1.712 and 13.569 and 0.613 and 20.897
same,Tmax (time to maximum plasma concentration),[1]; 60 mg/day oral,1 h and 12 h and 5 h
same,affinity for the active site of factor Xa,Factor Xa,high affinity
